Laboratory results published in PMC10427817, “Bioactivities of β-mangostin and its new glycoside derivatives synthesized by enzymatic reactions” (Royal Society Open Science, 2023).
Values after ≈ are worked out from the molar mass of the structure shown. Read-outs that look alike come from different tables or passages of the source.

Legend:
KB epidermal carcinoma = experiment: MTT cytotoxicity assay, KB; type: cell-based, human; conditions: Homo sapiens, KB cell line, 72 h, mean ± s.d., three replicates
Description: (§1) The cytotoxic activities against the cancer cell lines KB epidermal carcinoma, A549 lung cancer, HepG2 liver cancer and MCF-7 breast cancer, as well as the healthy cell line HEK293 embryonic kidney cells, were determined using the 3-(4,5-dimethylthiazol-2-yl)-2,5-diphenyltetrazolium bromide (MTT) assay. Briefly, cell lines were grown into log phase at 37°C, 5% CO2 in DMEM-Dulbecco's modified Eagle's medium and 10% fetal bovine serum. A concentration of 1 × 10^4–3 × 10^4 cells ml^−1 was prepared depending on the cell line used for the experiment by adding 10 µl of the sample and 190 µl of the cell suspension, followed by incubation under standard conditions. After 72 h of culture, 10 µl of MTT (5 mg ml^−1) was added and incubated for 4 h. Dimethyl sulfoxide (100 µl) was added to dissolve formazan crystals and the density was measured at 540 nm using a BioTek spectrophotometer. The inhibition of cell growth was expressed as IC50 (the half-maximal inhibitory concentration) value.

A549 lung cancer = experiment: MTT cytotoxicity assay, A549; type: cell-based, human; conditions: Homo sapiens; A549 cell line, MTT, 72 h, mean ± s.d., three replicates; read-out: IC50
Description: as §1, with “value. Ellipticine was used as reference.” for “value.”

HepG2 liver cancer = experiment: MTT cytotoxicity assay, HepG2; type: cell-based, human; conditions: Homo sapiens, HepG2 cell line, 72 h, mean ± s.d., three replicates
Description: as §1, with “value. Ellipticine was used as reference.” for “value.”

[1] = test system: KB, MCF-7, A549, HepG2, HEK293 cell lines; experiment: MTT cytotoxicity assay, range over all tested cell lines; type: cell-based, human; conditions: Homo sapiens; range over all tested cell lines, MTT, 72 h
Description: as §1, with “value. Ellipticine was used as reference.” for “value.”

AChE = AChE (Homo sapiens, UniProt P22303); experiment: Acetylcholinesterase inhibitory activity assay; type: biochemical; conditions: AChE 0.25 IU ml^−1, ATCI/DTNB, mean ± s.d., three replicates
Chain of AChE (P22303 32-614): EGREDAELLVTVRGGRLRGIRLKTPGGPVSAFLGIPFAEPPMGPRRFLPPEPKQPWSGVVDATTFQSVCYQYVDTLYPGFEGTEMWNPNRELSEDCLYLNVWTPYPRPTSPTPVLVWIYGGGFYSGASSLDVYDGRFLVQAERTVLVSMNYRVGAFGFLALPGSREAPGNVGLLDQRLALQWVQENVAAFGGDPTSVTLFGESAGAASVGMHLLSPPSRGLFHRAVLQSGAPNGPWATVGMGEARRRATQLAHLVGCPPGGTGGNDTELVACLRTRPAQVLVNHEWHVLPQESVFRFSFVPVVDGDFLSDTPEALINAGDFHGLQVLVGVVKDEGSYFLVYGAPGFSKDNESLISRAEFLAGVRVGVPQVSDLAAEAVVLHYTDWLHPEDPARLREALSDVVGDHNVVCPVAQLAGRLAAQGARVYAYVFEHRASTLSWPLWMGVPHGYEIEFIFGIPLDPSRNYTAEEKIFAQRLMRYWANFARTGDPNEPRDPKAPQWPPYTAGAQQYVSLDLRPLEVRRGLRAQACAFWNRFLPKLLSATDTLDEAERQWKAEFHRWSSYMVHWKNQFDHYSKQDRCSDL
Description: For the assay, acetylthiocholine iodide (ATCI) was used as a substrate for the reaction and 5,5′-dithiobis-(2-nitrobenzoic acid) (DTNB) was used to measure AChE activity. The reaction (200 µl) on a 96-well plate was performed by mixing Tris–Cl buffer (pH 8.0), tested sample in a twofold serial dilution, AChE (0.25 IU ml^−1) and incubating at 25°C, 15 min before adding 2.4 mM DTNB and 2.4 mM ATCI.

Staphylococcus aureus = experiment: Anti-microbial activity assay, S. aureus; type: cell-based; conditions: S. aureus
Description: (§2) Bacterial and fungal strains (Bacillus subtilis, Staphylococcus aureus, Lactobacillus fermentum, Escherichia coli, Pseudomonas aeruginosa, Salmonella enterica and Candida albicans) were activated on TSA (Tryptic Soy Agar) and SA (Sabouraud–4% dextrose agar) media, respectively. Before the experiment, the microbial strains were grown in the corresponding liquid media at a concentration of approximately 5 × 10^5 CFU ml^−1 for bacteria and 1 × 10^3 CFU ml^−1 for fungi. The microbial suspension (190 µl) was mixed with 10 µl of the test sample, which was serially diluted twofold, and the microplate was incubated at 37°C for 16–24 h.

Bacillus subtilis = experiment: Anti-microbial activity assay, B. subtilis; type: cell-based; conditions: B. subtilis
Description: as §2

Lactobacillus fermentum = experiment: Anti-microbial activity assay, L. fermentum; type: cell-based; conditions: L. fermentum
Description: as §2

Salmonella enterica = experiment: Anti-microbial activity assay, S. enterica; type: cell-based
Description: as §2

Pseudomonas aeruginosa = experiment: Anti-microbial activity assay, P. aeruginosa; type: cell-based
Description: as §2

Candida albicans = experiment: Anti-microbial activity assay, C. albicans; type: cell-based
Description: as §2

MCF-7 cell line = test system: MCF-7 cell line; set-up: method as in doi:10.1016/j.jff.2013.10.018; conditions: cited from earlier work
[2] = test system: HeLa cervical cancer cells; set-up: method as in PMID 26781450; conditions: cited from earlier work
C6 cells = test system: C6 cells; set-up: method as in PMID 34896543; conditions: C6 glioma cells; read-out: IC50, cell survival; cited from earlier work
U251 cells = test system: U251 cells; set-up: method as in PMID 34896543; conditions: U251 glioma cells; read-out: IC50, cell survival; cited from earlier work
T89G cells = test system: T89G cells; set-up: method as in PMID 34896543; conditions: T89G glioma cells; read-out: IC50, cell survival; cited from earlier work
α-glucosidase = conditions: ref 44; read-out: IC50, α-glucosidase inhibitory activity; cited from earlier work
[3] = test system: Enterococcus (VRE; vancomycin-resistant strain); set-up: method as in PMID 22494050; conditions: cited from earlier work
HeLa and SiHa cells = conditions: cited from earlier work

Question: Which results are given for `COc1cc2oc3cc(O)c(OC)c(CC=C(C)C)c3c(=O)c2c(O)c1CC=C(C)C` [β-mangostin]?
Answer: IC50 (KB epidermal carcinoma): 21.1 ± 9.9 µM; IC50 (A549 lung cancer): 15.4 ± 5.1 µM; IC50 (HepG2 liver cancer): 18.9 ± 7.6 µM; IC50 [1]: 15.4 to 21.1 µM; IC50 (AChE): 2.17 ± 0.18 µM; IC50 (Staphylococcus aureus; read-out: IC50): 1.24 ± 0.05 µg/mL (≈ 2.92 µM); MIC (Staphylococcus aureus; read-out: MIC): > 32 µg/mL; IC50 (Bacillus subtilis; read-out: IC50): 0.16 ± 0.01 µg/mL (≈ 0.377 µM); MIC (Bacillus subtilis; read-out: MIC): 0.5 µg/mL (≈ 1.18 µM); IC50 (Lactobacillus fermentum; read-out: IC50): 0.18 ± 0.01 µg/mL (≈ 0.424 µM); MIC (Lactobacillus fermentum; read-out: MIC): 0.5 µg/mL (≈ 1.18 µM); IC50 (Salmonella enterica): > 32 µg/mL; MIC (Salmonella enterica): > 32 µg/mL; MIC (Pseudomonas aeruginosa): greater than 32 μg ml^−1; IC50 (Pseudomonas aeruginosa; Pseudomonas aeruginosa): > 32 µg/mL; MIC (Pseudomonas aeruginosa; Pseudomonas aeruginosa, read-out: MIC): > 32 µg/mL; MIC (Candida albicans): greater than 32 μg ml^−1; IC50 (Candida albicans; Candida albicans, read-out: IC50): > 32 µg/mL; MIC (Candida albicans; Candida albicans, read-out: MIC): > 32 µg/mL; IC50 (MCF-7 cell line; MCF-7, 24 h treatment): 26 µM; IC50 (MCF-7 cell line; MCF-7, 48 h treatment): 16.5 µM; IC50 [2]: 27.2 µM; IC50 (C6 cells): 4.8 µM; IC50 (U251 cells): 5.8 µM; IC50 (T89G cells): 10.3 µM; IC50 (α-glucosidase): 14.4 µM; MIC [3]: > 200 µg/mL; cytotoxicity or cell cycle suppression (HeLa and SiHa cells): did not cause cytotoxicity or cell cycle suppression
